# Laboratory results as given in ChEMBL document CHEMBL1201862, “PubChem BioAssay data set” (2004).
# Activity calls are given as the source filed them.
# What was measured:
# [1] = Luminescent dose response cell-based high throughput screening assay for inhibitors of the Janus kinase 2 mutant JAK2V617F. [Related pubchem assays: 1446 (Primary screen.), 1521 (Confirmation assay.), 1486 (Counter screen.)]; format: functional
# Vero [2] = test: cells; format: functional, cell-based; conditions: Chlorocebus sabaeus
# Vero [3] = test: cells; format: functional; conditions: Chlorocebus sabaeus
# Estrogen receptor = target: T1, Estrogen receptor (Homo sapiens, UniProt P03372); test: ERα coactivator recruitment enhancers – biochemical, TR-FRET, ERα LBD, dose response (AID 737)
# T1 sequence (P03372 whole entry): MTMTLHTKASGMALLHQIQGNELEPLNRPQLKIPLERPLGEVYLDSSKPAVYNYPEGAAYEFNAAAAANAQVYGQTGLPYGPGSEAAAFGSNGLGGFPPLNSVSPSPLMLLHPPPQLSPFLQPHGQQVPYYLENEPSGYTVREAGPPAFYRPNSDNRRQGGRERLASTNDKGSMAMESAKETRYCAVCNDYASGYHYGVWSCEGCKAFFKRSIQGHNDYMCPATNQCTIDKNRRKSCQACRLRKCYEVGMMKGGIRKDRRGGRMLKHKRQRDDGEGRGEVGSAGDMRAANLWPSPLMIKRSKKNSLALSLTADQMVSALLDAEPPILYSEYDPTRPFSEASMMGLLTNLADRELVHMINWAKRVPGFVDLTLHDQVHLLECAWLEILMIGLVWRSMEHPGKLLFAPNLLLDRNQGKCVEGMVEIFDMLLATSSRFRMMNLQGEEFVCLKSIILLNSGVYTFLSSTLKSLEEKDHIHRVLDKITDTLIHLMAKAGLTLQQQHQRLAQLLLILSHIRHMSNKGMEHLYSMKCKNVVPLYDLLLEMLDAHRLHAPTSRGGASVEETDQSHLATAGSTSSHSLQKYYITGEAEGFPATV
# [4] = target: Solute carrier family 12 member 2/member 5 (Homo sapiens, UniProt P55011+Q9H2X9); test: KCC2 and NKCC1 inhibition by rubidium flux, cell-based, NKCC1 counter-screen (AID 1734); format: functional, HEK293
# [5] = target: T2, Voltage-gated N-type calcium channel alpha-1B subunit/Amyloid beta A4 precursor protein-binding family A member 1 (Homo sapiens, UniProt Q00975+Q02410); format: protein assay
# T2 sequence (Q00975 whole entry): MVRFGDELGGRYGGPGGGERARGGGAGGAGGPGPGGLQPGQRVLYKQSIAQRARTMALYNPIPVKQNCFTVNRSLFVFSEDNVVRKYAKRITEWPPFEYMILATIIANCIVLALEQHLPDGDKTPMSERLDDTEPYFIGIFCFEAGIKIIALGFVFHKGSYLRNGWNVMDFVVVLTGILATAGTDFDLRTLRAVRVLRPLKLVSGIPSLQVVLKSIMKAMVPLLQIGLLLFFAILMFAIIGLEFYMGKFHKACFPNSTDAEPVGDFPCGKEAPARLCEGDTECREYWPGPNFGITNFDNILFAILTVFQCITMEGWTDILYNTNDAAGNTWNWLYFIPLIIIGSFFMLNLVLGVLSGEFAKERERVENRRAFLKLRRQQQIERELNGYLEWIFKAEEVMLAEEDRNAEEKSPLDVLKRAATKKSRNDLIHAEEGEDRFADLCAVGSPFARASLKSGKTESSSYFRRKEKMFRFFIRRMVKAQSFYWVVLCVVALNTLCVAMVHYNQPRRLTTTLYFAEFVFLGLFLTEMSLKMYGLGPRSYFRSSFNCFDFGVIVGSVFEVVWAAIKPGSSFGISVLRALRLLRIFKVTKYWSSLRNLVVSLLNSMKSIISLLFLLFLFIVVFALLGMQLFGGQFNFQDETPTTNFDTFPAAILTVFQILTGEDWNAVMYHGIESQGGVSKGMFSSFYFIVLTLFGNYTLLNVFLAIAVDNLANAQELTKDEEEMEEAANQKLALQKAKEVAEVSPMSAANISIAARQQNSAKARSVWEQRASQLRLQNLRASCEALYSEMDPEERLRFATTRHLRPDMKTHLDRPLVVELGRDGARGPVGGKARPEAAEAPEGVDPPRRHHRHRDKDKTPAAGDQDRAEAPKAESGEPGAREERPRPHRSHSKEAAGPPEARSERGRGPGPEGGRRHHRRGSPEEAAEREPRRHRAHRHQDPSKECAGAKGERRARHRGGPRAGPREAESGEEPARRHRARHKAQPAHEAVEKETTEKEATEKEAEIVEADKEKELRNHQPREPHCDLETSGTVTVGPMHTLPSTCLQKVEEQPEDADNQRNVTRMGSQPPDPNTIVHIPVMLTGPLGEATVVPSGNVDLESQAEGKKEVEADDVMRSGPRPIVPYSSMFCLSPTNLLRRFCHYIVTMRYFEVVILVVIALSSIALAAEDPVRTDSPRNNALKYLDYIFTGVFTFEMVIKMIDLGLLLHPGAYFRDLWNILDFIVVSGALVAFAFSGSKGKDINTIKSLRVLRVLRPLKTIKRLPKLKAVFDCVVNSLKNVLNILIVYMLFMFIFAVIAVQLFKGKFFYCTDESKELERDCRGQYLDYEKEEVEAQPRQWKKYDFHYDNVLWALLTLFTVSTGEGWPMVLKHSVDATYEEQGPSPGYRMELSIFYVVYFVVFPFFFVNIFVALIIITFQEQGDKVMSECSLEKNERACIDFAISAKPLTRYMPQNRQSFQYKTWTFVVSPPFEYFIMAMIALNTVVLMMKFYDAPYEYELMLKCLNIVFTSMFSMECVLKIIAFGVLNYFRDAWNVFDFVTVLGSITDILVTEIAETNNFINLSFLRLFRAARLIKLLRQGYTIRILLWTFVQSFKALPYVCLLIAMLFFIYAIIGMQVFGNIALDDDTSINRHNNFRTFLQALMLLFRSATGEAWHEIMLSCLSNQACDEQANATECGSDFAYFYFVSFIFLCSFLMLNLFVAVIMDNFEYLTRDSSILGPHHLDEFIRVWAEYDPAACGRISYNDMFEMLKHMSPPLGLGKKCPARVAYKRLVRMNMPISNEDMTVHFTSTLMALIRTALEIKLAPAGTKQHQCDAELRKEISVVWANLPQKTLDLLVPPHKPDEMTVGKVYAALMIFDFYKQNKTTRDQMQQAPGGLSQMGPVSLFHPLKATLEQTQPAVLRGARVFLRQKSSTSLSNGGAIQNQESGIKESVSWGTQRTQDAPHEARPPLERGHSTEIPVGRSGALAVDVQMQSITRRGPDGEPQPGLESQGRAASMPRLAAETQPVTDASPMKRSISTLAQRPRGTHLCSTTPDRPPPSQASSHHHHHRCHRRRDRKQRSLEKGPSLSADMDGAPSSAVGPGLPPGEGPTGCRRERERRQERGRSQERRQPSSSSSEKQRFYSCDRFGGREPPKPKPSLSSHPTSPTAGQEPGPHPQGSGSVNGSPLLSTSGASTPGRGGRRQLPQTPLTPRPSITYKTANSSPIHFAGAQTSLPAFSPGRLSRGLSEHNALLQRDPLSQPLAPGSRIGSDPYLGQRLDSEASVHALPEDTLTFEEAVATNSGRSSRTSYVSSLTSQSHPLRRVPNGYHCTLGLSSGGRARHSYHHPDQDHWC
# T2 sequence (Q02410 whole entry): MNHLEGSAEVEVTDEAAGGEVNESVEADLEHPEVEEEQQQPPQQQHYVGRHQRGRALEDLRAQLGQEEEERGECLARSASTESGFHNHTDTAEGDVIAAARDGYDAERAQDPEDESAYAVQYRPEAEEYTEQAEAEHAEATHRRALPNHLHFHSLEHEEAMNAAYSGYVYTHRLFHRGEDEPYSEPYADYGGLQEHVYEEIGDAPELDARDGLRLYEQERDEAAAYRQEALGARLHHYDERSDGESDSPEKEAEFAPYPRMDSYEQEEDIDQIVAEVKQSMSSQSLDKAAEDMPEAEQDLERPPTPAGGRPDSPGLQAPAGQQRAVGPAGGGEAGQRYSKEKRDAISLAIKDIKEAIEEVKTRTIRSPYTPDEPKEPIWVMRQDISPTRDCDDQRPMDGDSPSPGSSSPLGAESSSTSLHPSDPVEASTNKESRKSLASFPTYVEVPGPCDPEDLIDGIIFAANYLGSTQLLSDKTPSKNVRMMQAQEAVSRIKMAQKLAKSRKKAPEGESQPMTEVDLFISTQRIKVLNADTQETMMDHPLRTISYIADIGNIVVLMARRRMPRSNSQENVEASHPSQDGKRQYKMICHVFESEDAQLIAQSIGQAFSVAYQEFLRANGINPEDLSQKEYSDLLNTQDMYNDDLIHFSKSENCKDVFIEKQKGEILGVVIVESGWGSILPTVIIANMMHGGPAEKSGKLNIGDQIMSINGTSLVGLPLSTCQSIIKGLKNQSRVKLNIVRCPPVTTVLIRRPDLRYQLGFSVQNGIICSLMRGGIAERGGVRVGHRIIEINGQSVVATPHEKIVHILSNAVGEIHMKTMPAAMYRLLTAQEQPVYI
# [6] = target: Glucose-6-phosphate 1-dehydrogenase (Homo sapiens, UniProt P11413); test: inhibition of Homo sapiens G6PD, dose series – biochemical, fluorescence, selectivity assay for P. falciparum G6PD inhibitor project, dose response (AID 504792); format: functional
# [7] = target: T2, Voltage-gated N-type calcium channel alpha-1B subunit/Amyloid beta A4 precursor protein-binding family A member 1; format: protein assay; remark: listed apart in the source
# [8] = target: T3, Mannose-6-phosphate isomerase (Homo sapiens, UniProt P34949); test: MPI enzyme activity inhibition – biochemical, fluorescence intensity, coupled assay, primary screen (AID 1209)
# T3 sequence (P34949 whole entry): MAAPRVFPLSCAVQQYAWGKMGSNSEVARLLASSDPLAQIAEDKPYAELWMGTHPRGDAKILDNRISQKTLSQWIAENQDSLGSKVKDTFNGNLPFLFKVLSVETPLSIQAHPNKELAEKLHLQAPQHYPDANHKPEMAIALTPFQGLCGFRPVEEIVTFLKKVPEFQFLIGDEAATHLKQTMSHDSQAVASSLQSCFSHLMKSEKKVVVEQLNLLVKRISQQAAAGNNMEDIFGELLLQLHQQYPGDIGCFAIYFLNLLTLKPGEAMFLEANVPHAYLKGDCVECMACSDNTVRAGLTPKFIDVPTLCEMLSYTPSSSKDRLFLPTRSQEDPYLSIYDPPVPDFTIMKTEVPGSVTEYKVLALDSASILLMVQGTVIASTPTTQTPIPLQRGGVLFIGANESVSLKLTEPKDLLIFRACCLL
# Vero [9] = test: mammalian cell viability reduction – secondary assay, cytotoxicity control for West Nile virus antiviral project, dose response (AID 1650); format: functional; conditions: Chlorocebus sabaeus
# Cytochrome P450 3A4 = Cytochrome P450 3A4 (Homo sapiens, UniProt P08684); conditions: Potency;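 also: confirmatory qHTS run detecting inhibitors and substrates of CYP3A4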
# Cytochrome P450 2C19 = Cytochrome P450 2C19 (Homo sapiens, UniProt P33261); test: qHTS Assay for Inhibitors and Substrates of Cytochrome P450 2C19. [Related pubchem assays: 410 ]; format: ADME; conditions: read-out: Potency
# [10] = target: Sphingosine 1-phosphate receptor 2 (Homo sapiens, UniProt O95136); test: Dose Response Cell Based Assay for Agonists of the S1P2 Receptor of Purchased Analogues. [Related pubchem assays: 729, 843, 854, 736 ]; format: functional
# Sphingosine 1-phosphate receptor 2, sequence (O95136 whole entry): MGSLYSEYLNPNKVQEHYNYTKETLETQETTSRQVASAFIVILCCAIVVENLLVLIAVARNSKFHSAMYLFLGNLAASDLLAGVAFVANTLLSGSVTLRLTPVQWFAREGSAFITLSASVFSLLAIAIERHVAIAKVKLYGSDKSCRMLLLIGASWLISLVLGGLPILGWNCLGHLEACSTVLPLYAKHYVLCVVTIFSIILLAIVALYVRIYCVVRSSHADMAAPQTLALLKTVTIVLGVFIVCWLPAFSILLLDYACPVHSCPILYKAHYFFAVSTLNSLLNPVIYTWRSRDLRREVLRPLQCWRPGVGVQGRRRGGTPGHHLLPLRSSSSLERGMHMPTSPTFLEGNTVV
# cells [11] = test: cells
# cells [12] = conditions: A549
# Vero [13] = test: inhibition of WNV-induced cytopathic effect – cell-based, CPE readout (AID 1621); format: functional; conditions: Chlorocebus sabaeus
# cells [14] = conditions: HEK293
# [15] = Luminescence Cell-Based Dose Confirmation HTS to Identify Inhibitors of Polyadenylation.; format: functional
# [16] = target: T4, Dual specificity protein phosphatase 6 (Rattus norvegicus, UniProt Q64346); test: inhibition of rat DUSP6 enzyme activity – biochemical, in vitro, primary screen (AID 425)
# T4 sequence (Q64346 whole entry): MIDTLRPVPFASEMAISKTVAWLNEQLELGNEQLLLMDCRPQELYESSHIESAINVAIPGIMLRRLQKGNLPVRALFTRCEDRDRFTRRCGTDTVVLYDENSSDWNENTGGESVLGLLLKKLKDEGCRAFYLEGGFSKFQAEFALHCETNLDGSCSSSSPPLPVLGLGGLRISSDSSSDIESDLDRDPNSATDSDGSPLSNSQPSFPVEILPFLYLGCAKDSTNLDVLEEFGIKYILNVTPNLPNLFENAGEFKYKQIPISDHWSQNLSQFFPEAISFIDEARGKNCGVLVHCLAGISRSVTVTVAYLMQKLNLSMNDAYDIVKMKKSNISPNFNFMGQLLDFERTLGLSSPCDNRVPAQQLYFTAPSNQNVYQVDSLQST
# [17] = A High Throughput Confirmatory Assay used to Identify Novel Compounds that Inhibit Mycobacterium Tuberculosis in the absence of Glycerol.; format: functional
# [18] = target: Heat shock protein HSP 90-alpha (Homo sapiens, UniProt P07900); format: functional, organism-based
# [19] = microbe, parasite or virus in culture; format: functional; conditions: Mycobacterium tuberculosis
# Cytochrome P450 2C9 = Cytochrome P450 2C9 (Homo sapiens, UniProt P11712)
# [20] = target: Protein-tyrosine kinase 2-beta (Homo sapiens, UniProt Q14289);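 also: potency of inhibitors of PYK2 kinase phosphorylation of poly-GT substrate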
# [21] = target: T5, DNA repair protein RAD52 homolog (Homo sapiens, UniProt P43351); format: functional, biochemical
# T5 sequence (P43351 whole entry): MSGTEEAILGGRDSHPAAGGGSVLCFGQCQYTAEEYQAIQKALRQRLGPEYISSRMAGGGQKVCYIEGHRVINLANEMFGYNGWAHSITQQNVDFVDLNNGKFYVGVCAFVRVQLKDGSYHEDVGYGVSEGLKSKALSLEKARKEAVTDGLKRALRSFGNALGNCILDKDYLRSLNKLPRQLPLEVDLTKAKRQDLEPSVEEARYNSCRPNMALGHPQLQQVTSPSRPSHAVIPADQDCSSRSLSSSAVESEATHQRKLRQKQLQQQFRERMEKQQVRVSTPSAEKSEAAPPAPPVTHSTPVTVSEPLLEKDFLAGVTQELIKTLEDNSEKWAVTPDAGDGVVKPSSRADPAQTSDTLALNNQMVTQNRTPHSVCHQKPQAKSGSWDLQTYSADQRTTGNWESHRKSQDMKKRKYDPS
# [22] = target: T6, Low molecular weight phosphotyrosine protein phosphatase (Homo sapiens, UniProt P24666); test: inhibition of human LMPTP enzyme activity – biochemical, absorbance, pNPP substrate, LMPTP-A isoform, set 2, orthogonal assay, dose response (AID 743308); format: functional
# T6 sequence (P24666 whole entry): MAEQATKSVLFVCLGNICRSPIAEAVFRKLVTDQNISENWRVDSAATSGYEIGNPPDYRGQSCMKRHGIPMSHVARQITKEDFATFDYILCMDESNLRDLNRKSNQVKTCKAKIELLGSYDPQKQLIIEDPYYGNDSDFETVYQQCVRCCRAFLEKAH
# [23] = target: SWI/SNF-related matrix-associated actin-dependent regulator of chromatin subfamily A member 2 (Homo sapiens, UniProt P51531); test: Luminescence-based cell-based high throughput dose response assay to identify activators of the function of SWI/SNF related, matrix associated, actin dependent regulator of chromatin, subfamily a, member 2 (SMARCA2, BRM).; format: functional
# SWI/SNF-related matrix-associated actin-dependent regulator of chromatin subfamily A member 2, sequence (P51531 whole entry): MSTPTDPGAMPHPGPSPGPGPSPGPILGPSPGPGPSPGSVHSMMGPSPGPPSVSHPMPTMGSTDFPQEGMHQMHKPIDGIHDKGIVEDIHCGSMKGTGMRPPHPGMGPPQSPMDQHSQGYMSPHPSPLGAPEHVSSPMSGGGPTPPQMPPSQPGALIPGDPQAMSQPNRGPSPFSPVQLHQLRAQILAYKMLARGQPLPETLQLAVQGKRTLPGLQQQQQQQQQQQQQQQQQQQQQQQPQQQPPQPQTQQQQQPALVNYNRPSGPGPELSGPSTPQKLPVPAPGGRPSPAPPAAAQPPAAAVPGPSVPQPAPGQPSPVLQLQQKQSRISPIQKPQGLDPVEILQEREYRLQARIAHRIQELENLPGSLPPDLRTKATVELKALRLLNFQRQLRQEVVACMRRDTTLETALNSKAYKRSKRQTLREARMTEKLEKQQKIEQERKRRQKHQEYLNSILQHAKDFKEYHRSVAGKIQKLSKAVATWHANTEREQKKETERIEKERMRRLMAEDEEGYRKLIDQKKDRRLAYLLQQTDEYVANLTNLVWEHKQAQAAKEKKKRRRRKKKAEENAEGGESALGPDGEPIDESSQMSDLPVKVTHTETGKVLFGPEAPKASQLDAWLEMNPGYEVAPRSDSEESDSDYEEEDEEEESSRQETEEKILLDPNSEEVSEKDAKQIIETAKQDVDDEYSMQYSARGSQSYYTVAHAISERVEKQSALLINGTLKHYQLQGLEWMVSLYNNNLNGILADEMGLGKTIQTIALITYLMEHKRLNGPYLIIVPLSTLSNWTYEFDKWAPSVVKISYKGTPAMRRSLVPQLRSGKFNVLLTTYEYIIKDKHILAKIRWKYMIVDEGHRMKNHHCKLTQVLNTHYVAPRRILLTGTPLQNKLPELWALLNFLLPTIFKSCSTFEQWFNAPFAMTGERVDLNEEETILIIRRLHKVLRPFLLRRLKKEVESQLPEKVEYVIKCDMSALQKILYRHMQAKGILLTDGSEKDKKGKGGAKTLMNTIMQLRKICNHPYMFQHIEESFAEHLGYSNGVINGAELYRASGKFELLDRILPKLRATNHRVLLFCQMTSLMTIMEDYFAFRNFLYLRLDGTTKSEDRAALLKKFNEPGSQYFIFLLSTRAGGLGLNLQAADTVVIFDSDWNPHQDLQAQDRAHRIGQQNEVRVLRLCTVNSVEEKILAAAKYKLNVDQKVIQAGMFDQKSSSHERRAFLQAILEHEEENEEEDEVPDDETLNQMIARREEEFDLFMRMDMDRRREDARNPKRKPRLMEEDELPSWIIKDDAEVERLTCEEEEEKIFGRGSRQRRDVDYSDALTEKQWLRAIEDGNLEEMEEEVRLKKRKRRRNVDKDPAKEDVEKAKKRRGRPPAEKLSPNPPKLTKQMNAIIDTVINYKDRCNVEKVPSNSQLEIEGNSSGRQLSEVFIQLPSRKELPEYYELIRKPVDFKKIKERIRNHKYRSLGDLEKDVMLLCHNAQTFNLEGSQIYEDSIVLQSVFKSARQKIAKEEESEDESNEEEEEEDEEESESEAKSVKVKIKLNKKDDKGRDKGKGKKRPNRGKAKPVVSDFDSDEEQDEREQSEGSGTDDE
# [24] = Counterscreen for activators of the function of SWI/SNF related, matrix associated, actin dependent regulator of chromatin, subfamily a, member 2 (SMARCA2, BRM): Luminescence-based cell-based high throughput dose response assay to identify non-selective compounds using the VP16 reporter assay.; format: functional
# [25] = target: T6, Low molecular weight phosphotyrosine protein phosphatase; test: inhibition of LMPTP-A enzymatic activity – biochemical, OMFP substrate, fluorescence intensity, set 2, dose response (AID 743307); format: functional
# [26] = target: T6, Low molecular weight phosphotyrosine protein phosphatase; format: functional; conditions: read-out: IC50_Mean
# [27] = target: T6, Low molecular weight phosphotyrosine protein phosphatase; format: functional; conditions: read-out: IC50_Mean; remark: listed apart in the source
# [28] = acridine orange displacement from DNA – biochemical, fluorescence polarization, cherry-pick, artefact control for RAD54 inhibitor project, dose response (AID 651673); format: functional
# [29] = target: T7, DNA repair and recombination protein RAD54-like (Homo sapiens, UniProt Q92698); test: RAD54 Holliday junction migration blockers – biochemical, fluorescence, cherry-picked samples, dose series, confirmation (AID 651657); format: functional
# T7 sequence (Q92698 whole entry): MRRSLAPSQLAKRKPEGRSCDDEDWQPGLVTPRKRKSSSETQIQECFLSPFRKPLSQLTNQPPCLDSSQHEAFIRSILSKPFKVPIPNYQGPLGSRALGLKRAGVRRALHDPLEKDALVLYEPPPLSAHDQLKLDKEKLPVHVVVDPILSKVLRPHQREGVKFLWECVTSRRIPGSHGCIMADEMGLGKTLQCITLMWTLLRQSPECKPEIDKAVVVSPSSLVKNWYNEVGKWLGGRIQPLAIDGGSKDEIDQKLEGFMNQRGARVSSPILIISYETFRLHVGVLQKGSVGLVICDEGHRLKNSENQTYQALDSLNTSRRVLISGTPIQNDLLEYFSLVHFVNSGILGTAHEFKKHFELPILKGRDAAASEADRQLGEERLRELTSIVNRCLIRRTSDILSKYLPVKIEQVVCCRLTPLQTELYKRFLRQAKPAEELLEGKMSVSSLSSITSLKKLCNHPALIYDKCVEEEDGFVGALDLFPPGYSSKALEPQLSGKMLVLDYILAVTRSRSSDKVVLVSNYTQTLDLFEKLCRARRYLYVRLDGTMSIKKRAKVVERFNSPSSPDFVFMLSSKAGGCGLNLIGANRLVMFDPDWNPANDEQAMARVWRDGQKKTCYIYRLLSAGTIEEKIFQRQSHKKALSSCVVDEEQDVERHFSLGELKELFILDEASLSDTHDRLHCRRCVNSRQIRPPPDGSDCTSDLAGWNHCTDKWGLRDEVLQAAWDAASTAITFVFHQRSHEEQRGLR
smiles,measurement,setting,value
O=C(NC1C=CS(=O)(=O)C1)c1sc2ccccc2c1Cl (stereo not given),IC50,[1],2.82 µM (active)
same,IC50,Vero [2],> 25 µM (active)
same,CC50,Vero [3],23.9 µM (active)
O=C(Nc1nccs1)c1nc(-c2ccccc2)n(-c2ccccc2)n1,EC50,Estrogen receptor,18.6 µM (active)
CC1Cc2ccccc2N1C(=O)c1ccc(N2CCCC2)c([N+](=O)[O-])c1 (stereo not given),IC50,[4],51 µM (active)
COc1ccc(N2CSC3=C(C#N)C(c4cc(OC)c(OC)cc4OC)CC(=O)N3C2)c(OC)c1 (stereo not given),IC50,[5],11.3 µM (active)
same,IC50,[6],42.5 µM (inactive)
same,IC50,[7],42.3 µM (active)
same,IC50,[8],4.3 µM (active)
CC(=O)Nc1cccc(C(=O)/C=C/c2ccc(F)cc2)c1,CC50,Vero [9],20.6 µM (active)
CCOC(=O)OCC1OC(c2ccccc2)C=CC1Oc1cccc(N(C)C)c1 (stereo not given),AC50,Cytochrome P450 3A4,3.16 µM (inconclusive)
same,AC50,Cytochrome P450 2C19,3.16 µM (inconclusive)
Cc1cc(C(=O)CN2C(=O)NC(Cc3ccccc3)C2=O)c(C)n1Cc1ccccc1 (stereo not given),EC50,[10],> 30 µM (not active)
Cc1cccn2c(=O)c3cc(C(=O)NCCN4CCOCC4)c(=N)n(Cc4ccc(F)cc4)c3nc12,AC50,cells [11],1.96 µM (active)
same,AC50,cells [12],18.3 µM (active)
same,IC50,Vero [13],25.6 µM (active)
same,IC50,Vero [2],> 25 µM (active)
same,CC50,Vero [3],> 25 µM (active)
same,AC50,cells [14],48.4 µM (active)
COc1cc(C2CC(=O)Oc3c(C(CCN4CCOCC4)c4ccc(N(C)C)cc4)c(OC)cc(OC)c32)cc(OC)c1OC (stereo not given),EC50,[15],> 120 µM (not active)
COc1ccc(Cn2c(C)nc3c(c2=O)c2nc4ccccc4nc2n3Cc2ccco2)cc1,IC50,[16],6.78 µM (active)
O=C(OCC(=O)N1CCN(C(=O)c2ccco2)CC1)c1cc(-c2cccc(Br)c2)nc2ccccc12,IC50,[17],> 100 µM (active)
same,AC50,[18],4.25 µM (active)
same,CC50,[19],14.4 µM (active)
COc1ccc(-c2coc3cc4oc(=O)cc(C)c4cc23)cc1F,AC50,Cytochrome P450 2C9,5.01 µM (inconclusive)
same,IC50,[20],12.5 µM (not active)
c1ccc(-c2cc(NCCN3CCCCC3)c3ccccc3n2)cc1,AC50,[21],< 3.63 µM (active)
same,IC50,[22],8.37 µM (active)
same,EC50,[23],10.9 µM (inactive)
same,EC50,[24],> 91.2 µM (inactive)
same,IC50,[25],3.7 µM (active)
same,IC50,[26],3.49 µM (active)
same,IC50,[27],5.8 µM (active)
same,AC50,[28],58.8 µM (active)
same,AC50,[29],4.86 µM (active)
